# Structures can show the parent of a compound that is named as a salt.
# B1: recombinant WNT-5A (ligand)
# chain: IIGAQPLCSQLAGLSQGQKKLCHLYQDHMQYIGEGAKTGIKECQYQFRHRRWNCSTVDNTSVFGRVMQIGSRETAFTYAVSAAGVVNAMSRACREGELSTCGCSRAARPKDLPRDWLWGGCGDNIDYGYRFAKEFVDARERERIHAKGSYESARILMNLHNNEAGRRTVYNLADVACKCHGVSGSCSLKTCWLQLADFRKVGDALKEKYDSAAAMRLNSRGKLVQVNSRFNSPTTQDLVYIDPSPDYCVRNESTGSLGTQGRLCNKTSEGMDGCELMCCGRGYDQFKTVQTERCHCKFHWCCYVKCKKCTEIVDQFVCK
# Experiments:
# [1] = biological target: T1, FZD6 (Nluc–FZD6; SNAP–FZD6; SNAP–FZD6–Rluc8; FLAG–FZD6–Nluc) (Homo sapiens, UniProt O60353); assay: BRET Venus–mGsi recruitment to SNAP–FZD6–Rluc8; format: cell-based; details: agonist; no bell shape
# T1 construct: expressed in SMO-knockout HEK293 cells
# T1 sequence (O60353 19-706): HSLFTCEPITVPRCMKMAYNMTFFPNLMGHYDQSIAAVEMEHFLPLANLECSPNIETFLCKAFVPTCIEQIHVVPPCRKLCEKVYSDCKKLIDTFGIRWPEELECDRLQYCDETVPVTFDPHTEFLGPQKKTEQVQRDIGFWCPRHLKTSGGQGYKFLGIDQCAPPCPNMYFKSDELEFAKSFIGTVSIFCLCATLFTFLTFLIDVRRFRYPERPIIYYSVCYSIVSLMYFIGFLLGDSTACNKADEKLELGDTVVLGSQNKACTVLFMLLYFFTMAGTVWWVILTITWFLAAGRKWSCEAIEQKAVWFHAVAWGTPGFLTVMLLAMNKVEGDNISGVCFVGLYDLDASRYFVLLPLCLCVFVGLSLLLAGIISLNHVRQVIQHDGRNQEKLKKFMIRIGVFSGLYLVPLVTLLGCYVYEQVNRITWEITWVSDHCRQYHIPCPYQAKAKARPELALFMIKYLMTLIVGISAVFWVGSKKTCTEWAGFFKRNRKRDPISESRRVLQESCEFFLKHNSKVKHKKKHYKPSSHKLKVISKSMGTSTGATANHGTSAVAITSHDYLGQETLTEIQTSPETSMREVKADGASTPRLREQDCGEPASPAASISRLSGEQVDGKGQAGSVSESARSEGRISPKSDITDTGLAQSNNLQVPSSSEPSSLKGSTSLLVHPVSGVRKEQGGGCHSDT
# SMO–Rluc8 = biological target: T2, SMO–Rluc8 (Mus musculus, UniProt P56726); assay: BRET Venus–mGsi recruitment to SMO–Rluc8; format: cell-based; details: agonist; no bell shape
# T2 construct: full-length receptor with C-terminal Rluc8; expressed in HEK293-derived cells
# FZD6–FlAsH–TFP = biological target: T3, FZD6–FlAsH–TFP (Homo sapiens, UniProt O60353, INS404FLNCCPGCCMEP); assay: intramolecular FRET conformational probe in HEK293 cells; format: cell-based
# T3 construct: from FZD6–GFP; expressed in HEK293 cells
# T3 sequence (O60353 with tags, fused parts or gaps INS404FLNCCPGCCMEP): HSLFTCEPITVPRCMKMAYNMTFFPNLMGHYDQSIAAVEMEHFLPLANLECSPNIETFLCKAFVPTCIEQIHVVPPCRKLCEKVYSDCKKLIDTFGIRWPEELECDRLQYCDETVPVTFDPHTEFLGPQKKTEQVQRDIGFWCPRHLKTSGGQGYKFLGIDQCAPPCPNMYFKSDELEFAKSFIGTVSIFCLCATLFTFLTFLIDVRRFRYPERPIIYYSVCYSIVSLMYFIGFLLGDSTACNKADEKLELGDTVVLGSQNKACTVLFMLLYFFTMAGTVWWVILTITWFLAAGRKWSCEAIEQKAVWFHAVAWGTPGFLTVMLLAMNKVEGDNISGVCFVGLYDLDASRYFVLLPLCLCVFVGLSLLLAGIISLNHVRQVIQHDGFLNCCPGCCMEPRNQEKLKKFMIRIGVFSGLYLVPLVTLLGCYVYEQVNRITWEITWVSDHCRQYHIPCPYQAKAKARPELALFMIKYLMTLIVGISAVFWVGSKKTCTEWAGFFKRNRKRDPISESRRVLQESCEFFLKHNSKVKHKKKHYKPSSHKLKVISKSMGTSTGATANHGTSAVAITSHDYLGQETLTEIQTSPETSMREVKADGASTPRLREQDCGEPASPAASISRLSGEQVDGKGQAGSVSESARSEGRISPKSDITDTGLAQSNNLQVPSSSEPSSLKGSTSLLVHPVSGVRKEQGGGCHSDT
# [2] = biological target: T4, FZD4 (FZD4–Nluc; SNAP–FZD4) (Homo sapiens, UniProt Q9ULV1); assay: BRET Venus–mG13 recruitment to FZD4–Nluc; format: cell-based; details: negative control subtype
# T4 construct: full-length receptor with C-terminal Nluc or N-terminal SNAP; expressed in HEK293-derived cells
# T4 sequence (Q9ULV1 37-537): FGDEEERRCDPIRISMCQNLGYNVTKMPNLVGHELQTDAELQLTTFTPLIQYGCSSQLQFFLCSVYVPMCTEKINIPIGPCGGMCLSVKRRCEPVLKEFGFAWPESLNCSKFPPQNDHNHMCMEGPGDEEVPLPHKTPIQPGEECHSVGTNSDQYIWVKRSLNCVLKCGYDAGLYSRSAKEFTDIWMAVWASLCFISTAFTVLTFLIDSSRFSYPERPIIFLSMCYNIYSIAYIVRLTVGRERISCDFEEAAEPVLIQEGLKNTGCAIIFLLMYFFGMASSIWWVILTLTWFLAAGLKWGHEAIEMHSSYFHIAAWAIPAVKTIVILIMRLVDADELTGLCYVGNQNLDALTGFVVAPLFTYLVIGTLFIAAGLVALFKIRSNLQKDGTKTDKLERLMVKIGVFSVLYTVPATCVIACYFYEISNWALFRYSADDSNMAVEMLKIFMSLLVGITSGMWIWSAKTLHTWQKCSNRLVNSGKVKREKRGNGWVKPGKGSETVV
# [3] = biological target: T1, FZD6 (Nluc–FZD6; SNAP–FZD6; SNAP–FZD6–Rluc8; FLAG–FZD6–Nluc); assay: NanoBRET competition binding, living SMO-knockout HEK293 cells; format: cell-based
# [4] = biological target: T1, FZD6 (Nluc–FZD6; SNAP–FZD6; SNAP–FZD6–Rluc8; FLAG–FZD6–Nluc); assay: BRET Venus–mGsi recruitment in SMO-knockout HEK293 cells; format: cell-based; details: agonist; bell-shaped curve
# [5] = biological target: T1, FZD6 (Nluc–FZD6; SNAP–FZD6; SNAP–FZD6–Rluc8; FLAG–FZD6–Nluc); assay: NanoBRET saturation binding, living SMO-knockout HEK293 cells; format: cell-based; details: Nluc–FZD6, 90 min, 37 °C; labelled compound
# FZD6–FlAsH–TFP (human) = biological target: T5, FZD6–FlAsH–TFP (human) (UniProt O60353)
# T5 sequence (chain, FlAsH (fluorescein arsenical hairpin binder) labelled on the FlAsH-binding motif): T1 sequence (O60353 19-706)
# T2 sequence (P56726 33-793): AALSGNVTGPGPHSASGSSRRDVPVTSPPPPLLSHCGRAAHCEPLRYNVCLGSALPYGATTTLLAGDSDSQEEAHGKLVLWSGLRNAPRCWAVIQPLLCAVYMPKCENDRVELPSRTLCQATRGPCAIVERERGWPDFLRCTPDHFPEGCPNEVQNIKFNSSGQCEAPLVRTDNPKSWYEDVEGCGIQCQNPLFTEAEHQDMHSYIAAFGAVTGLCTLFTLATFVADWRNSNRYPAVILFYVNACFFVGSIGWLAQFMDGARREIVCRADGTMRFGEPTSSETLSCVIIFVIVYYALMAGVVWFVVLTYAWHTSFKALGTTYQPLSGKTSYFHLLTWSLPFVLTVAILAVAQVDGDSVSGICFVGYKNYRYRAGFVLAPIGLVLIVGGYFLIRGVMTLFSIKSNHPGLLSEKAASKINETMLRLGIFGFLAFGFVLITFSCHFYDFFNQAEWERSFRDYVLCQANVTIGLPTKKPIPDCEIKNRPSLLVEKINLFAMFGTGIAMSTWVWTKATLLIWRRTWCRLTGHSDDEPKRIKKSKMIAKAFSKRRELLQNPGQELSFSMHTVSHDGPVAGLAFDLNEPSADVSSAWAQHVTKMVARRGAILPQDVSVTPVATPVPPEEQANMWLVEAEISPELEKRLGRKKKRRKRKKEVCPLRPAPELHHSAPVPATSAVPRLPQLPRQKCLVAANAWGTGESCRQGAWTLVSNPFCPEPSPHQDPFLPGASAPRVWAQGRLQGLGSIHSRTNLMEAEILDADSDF
molecule,measurement,setting,value
"c1ccc2c(Oc3nc(Nc4ccc(N5CCOCC5)cc4)c4ncn(C5CCCCC5)c4n3)cccc2c1 [purmorphamine, 9-cyclohexyl-N-[4-(4-morpholinyl)phenyl]-2-(1-naphthalenyloxy)-9H-purin-6-amine]",EC50,[1],concentration-dependent recruitment of Venus–mGsi to SMO–Rluc8 (d) and SNAP–FZD6–Rluc8
same,EC50,SMO–Rluc8,concentration-dependent recruitment of Venus–mGsi to SMO–Rluc8 and SNAP–FZD6–Rluc8
"CN[C@H]1CC[C@H](N(Cc2cccc(-c3ccncc3)c2)C(=O)c2sc3ccccc3c2Cl)CC1 [SAG1.3, 3-chloro-N-[trans-4-(methylamino)cyclohexyl]-N-[[3-(4-pyridinyl)phenyl]methyl]-benzo[b]thiophene-2-carboxamide dihydrochloride]",EC50,FZD6–FlAsH–TFP,316 nM
same,BRET Venus-mG13 recruitment to FZD4-Nluc,[2],we did not detect any SAG1.3-induced Venus–mG13 recruitment
same,Ki,[3],2510 nM
same,EC50,[4],A similar biphasic concentration–response curve was observed
CC1=C2CC3C(CC=C4C[C@@H](O)CCC43C)C2CCC12O[C@@H]1CC(C)CN(CCNC(=O)CCCCCNC(=O)CCC3=[N+]4C(=Cc5c(C)cc(C)n5[B-]4(F)F)C=C3)C1C2C (stereo partly drawn) [BODIPY–cyclopamine],pKd,[5],6.3 ± 0.1
B1,decrease of the intramolecular FRET ratio (FlAsH/TFP) of the FZD6–FRET probe in HEK293 cells with increasing concentrations of WNT-5A; log10EC50 (log10 (ng ml^−1)),FZD6–FlAsH–TFP (human),2.2
same,"decrease of the intramolecular FRET ratio (FlAsH/TFP) of the FZD6–FRET probe in HEK293 cells, WNT-5A up to 1000 ng ml^−1; maximum efficacy",FZD6–FlAsH–TFP (human),4.9%

# Source: article PMC6972889, “Structural insight into small molecule action on Frizzleds” (Nature Communications, 2020)
